How the values were obtained:
[1] = tested on: HuPrime® cervical xenograft model CV1248 [P3]; experiment: Anti-tumor efficacy of tisotumab vedotin with carboplatin in cervical cancer PDX mouse model; type: in vivo, BALB/c nude mice; settings: alone; tisotumab vedotin 2 mg/kg, carboplatin 40 or 80 mg/kg; FIGS. 3A and 3B
Experimental: The in vivo anti-tumor efficacy of tisotumab vedotin in combination with carboplatin was evaluated in a patient-derived xenograft (PDX) mouse model in female BALB/c nude mice (Crown Bioscience [Taicang] Inc.). Xenografts were derived from tumor specimens from cancer patients. Tumor fragments were obtained from xenografts in serial passage in nude mice. Tumors were cut into fragments of 2-4 mm diameter and placed in phosphate-buffered saline (PBS) until subcutaneous implantation. A cervical cancer PDX model (HuPrime® cervical xenograft model CV1248 [P3]; Crown Bioscience Inc.) was used in this experiment. Tumor size was determined by caliper measurement at least two times a week and tumor volume was calculated as 0.5×length× width^2. When tumors reached an average volume of 150 mm^3, mice were randomized in 7 groups (10 mice per treatment group). The day of randomization was designated day 0. Mice were treated with the following by intravenous injections: 1) tisotumab vedotin alone at a dose level of 2 mg/kg, provided on day 0, day 7 and day 14; 2) carboplatin (Selleck Chemicals, cat. no. […]

[2] = tested on: HuPrime® cervical xenograft model CV1248 [R4P5]; experiment: Anti-tumor efficacy of tisotumab vedotin with cisplatin in cervical cancer PDX mouse model; type: in vivo, BALB/c nude mice; settings: alone, tisotumab vedotin 2 mg/kg and 4 mg/kg, cisplatin 4 mg/kg; for tumor growth: FIG. 1A-C; for survival: tumor size cut-off 1000 mm^3, FIGS. 1D and 1E
Experimental: The in vivo anti-tumor efficacy of tisotumab vedotin in combination with cisplatin was evaluated in a patient-derived xenograft (PDX) mouse model in BALB/c nude mice (Crown Bioscience Inc.). Xenografts were derived from tumor specimens from cancer patients. Establishment and characterization of the PDX model was performed following primary implantation into nude mice. Tumor xenografts were passaged approximately three to five times until establishment of stable growth patterns. Tumor fragments were obtained from xenografts in serial passage in nude mice. Tumors were cut into fragments of 2-3 mm diameter and placed in phosphate-buffered saline (PBS) until subcutaneous implantation. A cervical cancer PDX model (HuPrime® cervical xenograft model CV1248 [R4P5]; Crown Bioscience Inc.) was used in this experiment. Tumor size was determined by caliper measurement at least two times a week and tumor volume was calculated as 0.5×length×width^2. When tumors reached the volume of 200 mm^3, mice were randomized in 11 groups (7-8 mice per treatment group). Mice were treated with the following by intravenous injections: 1) tisotumab vedotin alone at a dose level of 0.5 mg/kg, 1 mg/kg, 2 mg/kg or 4 mg/kg provided on day 0 and day 7 of treatment; 2) cisplatin alone at a dose of 4 mg/kg provided on day 0, day 7 and day 14 of treatment; 3) tisotumab vedotin at a dose level of 0.5 mg/kg, 1 mg/kg, 2 mg/kg or 4 mg/kg provided on day 0 and day 7 of treatment in combination with cisplatin at a dose of 4 mg/kg provided on day 0, day 7 and day 14 of treatment; 4) IgG1 isotype control at a dose of 4 mg/kg provided on day 0 and day 7 of treatment; or 5) IgG1-MMAE control at a dose of 4 mg/kg provided on day 0 and day 7 of treatment. […] Mice were housed in individually ventilated (IVC) cages, four or five mice per cage and identified by ear tags.
To determine whether there were statistically significant differences between tumor volumes in control and treatment groups, tumor volumes in the treatment groups were compared with those in the control group (e.g., treatment groups vs IgG1-MMAE control) using Mann-Whitney analysis at the last day that all groups were intact, i.e., day 38. For survival analysis (tumor volume cut-off was 1,000 mm^3). Mantel-Cox analysis was performed on Kaplan-Meier plots with a cut-off set at tumor volume >1,000 mm^3.

[3] = tested on: bladder xenograft model BXF1036; experiment: Anti-tumor efficacy of tisotumab vedotin with cisplatin in bladder cancer PDX mouse model; type: in vivo, Crl:NMRI-Foxn1^nu nude mice; settings: alone; for tumor growth: tisotumab vedotin 0.5 mg/kg, cisplatin 2 mg/kg, FIG. 2A-C; for survival: tumor size cut-off 500 mm^3, FIG. 2D
Experimental: The in vivo anti-tumor efficacy of tisotumab vedotin in combination with cisplatin was evaluated in a PDX mouse model in female Crl:NMRI-Foxn1^nu (Envigo RMS SARL, France) nude mice (Charles River Discovery Research Services). Xenografts were derived from tumor specimens from cancer patients. Establishment and characterization of the PDX model was performed following primary implantation into nude mice. Tumor xenografts were passaged approximately three to five times until establishment of stable growth patterns. Tumor fragments were obtained from xenografts in serial passage in nude mice. Tumors were cut into fragments of 3-4 mm diameter and placed in phosphate-buffered saline (PBS) until subcutaneous implantation. A bladder cancer PDX model (bladder xenograft model BXF1036; Charles River Discovery Research Services) was used in this experiment. Tumor size was determined by caliper measurement at least two times a week and tumor volume was calculated as 0.52×length×[…]. When tumors reached the volume of 50-250 mm^3, mice were randomized in 5 groups (10 mice per treatment group). Mice were treated with the following: 1) tisotumab vedotin alone at a dose level of 0.5 mg/kg provided on day 1 of treatment; 2) cisplatin alone at a dose of 2 mg/kg provided on day 1 and day 8 of treatment; 3) tisotumab vedotin at a dose level of 0.5 mg/kg provided on day 1 of treatment in combination with cisplatin at a dose of 2 mg/kg provided on day 1 and day 8 of treatment; 4) IgG1 isotype control at a dose of 0.5 mg/kg provided on day 1 of treatment; or 5) IgG1-MMAE control at a dose of 0.5 mg/kg provided on day 1 of treatment. IgG1 isotype control, IgG1-MMAE control and tisotumab vedotin were each in PBS and injected intravenously. Cisplatin was in 0.9% NaCl and injected subcutaneously. […] Mice were housed in individually ventilated (IVC) cages, with a maximum of five mice per cage, and identified by ear tags.
To determine whether there were statistically significant differences between tumor volumes in control and treatment groups, tumor volumes in the treatment groups were compared with those in the control groups (e.g., IgG1-MMAE control, tisotumab vedotin alone or cisplatin alone) using Mann-Whitney analysis at the last day that all groups were intact, i.e., day 25. Statistical analysis of the difference between groups treated with tisotumab vedotin in combination with cisplatin and groups treated with either tisotumab vedotin alone or cisplatin alone was performed on day 32.
Tumor progression was plotted in a Kaplan-Meier plot, with a cut-off set at a tumor volume >500 mm^3. […]

[4] = tested on: relapsed, recurrent, and/or metastatic cervical cancer; settings: cited from earlier work

Row | Molecule | tumor growth [1] | tumor growth [2] | survival [2] | tumor growth [3] | survival [3] | efficacy ([4]; 2.0 mg/kg) | safety profile ([4]; 2.0 mg/kg) | grade of reported peripheral neuropathy cases ([4]; in vivo) | Epistaxis (bleeding AE) ([4]; nearly all of the cases are grade 1) | subjects with peripheral neuropathy ([4]; subjects who received treatment with tisotumab vedotin)
1 | Tisotumab vedotin: antibody-drug conjugate comprising an antibody that binds to tissue factor (TF), a protease-cleavable linker, and the microtubule disrupting agent MMAE | efficiently inhibited tumor growth | efficiently inhibited tumor growth | prolonged survival | efficiently inhibited tumor growth | prolonged survival | robust efficacy | manageable safety profile | majority of the reported cases are grade 1-2 | most common reported AE | approximately 35%
2 | N.N.[Cl][Pt][Cl] [Cisplatin, reference compound] |  | inhibited tumor growth | prolonged survival | inhibited tumor growth | prolonged survival |  |  |  |  | 
3 | N.N.O=C([O-])C1(C(=O)[O-])CCC1.[Pt+2] [Carboplatin, reference compound] | did not inhibit tumor growth |  |  |  |  |  |  |  |  | 

— patent US12246025B2, “Methods of treating cancer with a combination of a platinum-based agent and an anti-tissue factor antibody-drug conjugate” (priority 2018, dated 2025)
